Consider two molecules from publication PMC10818931, “In Vitro Evaluation of Drug–Drug Interaction Potential of Epetraborole, a Novel Bacterial Leucyl-tRNA Synthetase Inhibitor” (Pharmaceuticals, 2024).

What all share (experiment): Uptake transporter inhibition in transfected HEK 293 or MDCK cells
Common to all, as to type: in vitro ADME

In one data set the target is T1, OATP1B1 (Homo sapiens, UniProt Q9Y6L6).
T1 construct: host or cells: MDCK
T1 sequence (Q9Y6L6 1-691): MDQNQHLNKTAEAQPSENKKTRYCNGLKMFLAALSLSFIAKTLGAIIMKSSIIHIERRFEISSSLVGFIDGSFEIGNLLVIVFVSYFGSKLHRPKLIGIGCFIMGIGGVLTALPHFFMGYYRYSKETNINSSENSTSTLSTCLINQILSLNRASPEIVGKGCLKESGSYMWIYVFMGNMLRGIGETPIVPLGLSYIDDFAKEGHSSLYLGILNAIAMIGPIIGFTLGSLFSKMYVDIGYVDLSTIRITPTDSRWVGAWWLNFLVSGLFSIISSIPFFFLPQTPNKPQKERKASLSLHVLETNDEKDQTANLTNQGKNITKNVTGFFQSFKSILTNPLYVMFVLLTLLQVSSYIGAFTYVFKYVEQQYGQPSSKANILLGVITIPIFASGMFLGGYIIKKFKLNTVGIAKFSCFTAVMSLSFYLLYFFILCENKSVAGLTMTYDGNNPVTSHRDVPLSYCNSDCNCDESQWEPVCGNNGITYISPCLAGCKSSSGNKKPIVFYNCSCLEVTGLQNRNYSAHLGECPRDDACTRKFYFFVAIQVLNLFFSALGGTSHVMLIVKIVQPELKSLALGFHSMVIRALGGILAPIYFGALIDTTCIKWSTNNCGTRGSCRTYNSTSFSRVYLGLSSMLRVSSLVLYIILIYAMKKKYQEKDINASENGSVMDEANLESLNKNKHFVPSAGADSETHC
The procedure:
(§1) Cell monolayers were preincubated (37 °C) for 15 to 30 min in a transport medium containing the target concentration of EBO or a specific inhibitor without substrate. Following the removal of preincubation solutions, appropriate working solutions containing EBO at the target concentration plus the probe substrate were added to the wells in triplicate. Separate sets of triplicate wells were designated for probe substrate only and probe substrate plus the specific inhibitors, to determine the maximal uptake rate and maximal inhibition of uptake, respectively. After incubation at 37 °C for each transporter, the working solution was removed from each well and the experiment was stopped by washing three times with cold (4 °C) DPBS. Depending on the substrate label, cells were either lysed for the analysis of total radioactivity (liquid scintillation counter) or LC-MS/MS methods. For measuring relative fluorescence (FLUOstar Galaxy, Cary, NC, USA), cells were not lysed.

Another data set concerns the target T2, OAT3 (Homo sapiens, UniProt Q8TCC7).
T2 construct: host or cells: MDCK
T2 sequence (Q8TCC7 1-542): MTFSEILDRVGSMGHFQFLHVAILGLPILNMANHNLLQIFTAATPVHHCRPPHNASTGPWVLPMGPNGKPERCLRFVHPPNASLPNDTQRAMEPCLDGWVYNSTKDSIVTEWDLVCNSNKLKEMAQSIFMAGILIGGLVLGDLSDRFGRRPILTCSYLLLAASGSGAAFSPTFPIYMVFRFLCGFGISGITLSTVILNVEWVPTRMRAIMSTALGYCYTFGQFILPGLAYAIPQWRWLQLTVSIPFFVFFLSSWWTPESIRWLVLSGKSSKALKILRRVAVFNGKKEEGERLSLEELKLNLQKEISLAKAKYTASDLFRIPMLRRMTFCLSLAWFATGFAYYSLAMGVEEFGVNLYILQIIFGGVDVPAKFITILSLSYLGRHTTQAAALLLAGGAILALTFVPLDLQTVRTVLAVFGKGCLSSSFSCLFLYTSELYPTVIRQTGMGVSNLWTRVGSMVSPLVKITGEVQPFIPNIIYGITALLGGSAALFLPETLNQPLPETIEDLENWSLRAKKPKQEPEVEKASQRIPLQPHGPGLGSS
To be noted: for Inhibition (in words): concentrations up to 1000 μM; for IC50: read-out: as an Inhibitor, IC50. The procedure:
as §1

Another data set concerns the target T3, OCT1 (Homo sapiens, UniProt O15245).
T3 construct: expressed in transfected cells; host or cells: HEK 293 or MDCK
The procedure:
as §1

For another data set, the target named is T4, OCT2 (Homo sapiens, UniProt O15244).
T4 construct: host or cells: MDCK
T4 sequence (O15244 1-555): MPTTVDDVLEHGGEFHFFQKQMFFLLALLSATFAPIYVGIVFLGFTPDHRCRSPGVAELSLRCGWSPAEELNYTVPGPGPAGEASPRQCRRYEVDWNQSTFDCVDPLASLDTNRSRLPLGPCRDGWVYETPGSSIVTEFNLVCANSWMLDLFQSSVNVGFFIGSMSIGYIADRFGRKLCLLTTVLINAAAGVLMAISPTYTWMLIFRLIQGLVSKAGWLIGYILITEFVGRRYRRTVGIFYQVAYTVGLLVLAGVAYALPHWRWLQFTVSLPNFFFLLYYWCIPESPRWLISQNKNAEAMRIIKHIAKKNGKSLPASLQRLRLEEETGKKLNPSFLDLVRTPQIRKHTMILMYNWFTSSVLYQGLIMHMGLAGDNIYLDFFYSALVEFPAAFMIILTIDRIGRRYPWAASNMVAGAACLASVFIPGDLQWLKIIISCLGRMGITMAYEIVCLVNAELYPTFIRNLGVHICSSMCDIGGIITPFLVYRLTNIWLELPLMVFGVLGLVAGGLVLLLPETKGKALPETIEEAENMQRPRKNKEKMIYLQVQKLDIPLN
The procedure:
as §1

Setting [1] is: read-out: as an Inhibitor, IC50.

T3 sequence (O15245 whole entry): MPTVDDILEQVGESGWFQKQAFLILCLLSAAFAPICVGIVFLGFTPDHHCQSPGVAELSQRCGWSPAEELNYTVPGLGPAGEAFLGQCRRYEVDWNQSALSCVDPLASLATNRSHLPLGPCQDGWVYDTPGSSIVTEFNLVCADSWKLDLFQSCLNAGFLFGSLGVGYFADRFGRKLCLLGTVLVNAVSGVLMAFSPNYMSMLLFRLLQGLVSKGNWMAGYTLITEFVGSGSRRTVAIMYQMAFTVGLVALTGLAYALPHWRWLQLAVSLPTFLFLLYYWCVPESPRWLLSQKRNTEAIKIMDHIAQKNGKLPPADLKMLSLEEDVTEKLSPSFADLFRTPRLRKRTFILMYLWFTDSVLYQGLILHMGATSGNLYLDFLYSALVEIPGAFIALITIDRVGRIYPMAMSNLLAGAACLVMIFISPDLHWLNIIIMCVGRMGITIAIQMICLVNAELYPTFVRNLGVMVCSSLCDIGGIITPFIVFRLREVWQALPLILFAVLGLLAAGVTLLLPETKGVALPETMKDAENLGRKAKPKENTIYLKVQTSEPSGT

On to `NC[C@H]1OB(O)c2c(OCCCO)cccc21` [EBO, Epetraborole], for which the inhibition at 500 µM against OATP1B1 (human, HEK 293 or MDCK cells transfected with OATP1B1, at 500 µM) amounted to 25%. Besides, the “Inhibition (in words)” value on OAT3 is “did not inhibit”. At OAT3, the IC50 is over 1000 µM. Further, the inhibition at 1000 µM came out at 59% on OCT1 (human, HEK 293 or MDCK cells transfected with OCT1, probe metformin, metformin transport, at 1000 µM (maximum tested)) and 20% against OCT2 (human, probe metformin, metformin transport, at 1000 µM (maximum tested)).
As for `NC[C@H]1OB(O)c2c(OCCC(=O)O)cccc21` [M3], the IC50 on OATP1B1 (setting [1]) was over 250 µM; on OAT3, over 1000 µM; at OCT1 (setting [1]) it was over 250 µM; on OCT2 (setting [1]) it was over 250 µM. The “Inhibition (in words)” value at OAT3 is “did not inhibit”.

In general, inhibition refers to the change of the read-out against control, counted positive when it falls. The low end stands for little suppression, the high end for strong suppression. Usually IC50 stands for the midpoint of a concentration-inhibition curve.
